Assays:
Type in all cases: biochemical
Itk = target: T1, Itk (Homo sapiens, UniProt Q08881); experiment: Kinase inhibition assay (33P transfer), Itk; details: read-out: Itk-1
T1 construct: Kinases are expressed as either kinase domains or full length constructs; made in house
T1 sequence (Q08881 1-620): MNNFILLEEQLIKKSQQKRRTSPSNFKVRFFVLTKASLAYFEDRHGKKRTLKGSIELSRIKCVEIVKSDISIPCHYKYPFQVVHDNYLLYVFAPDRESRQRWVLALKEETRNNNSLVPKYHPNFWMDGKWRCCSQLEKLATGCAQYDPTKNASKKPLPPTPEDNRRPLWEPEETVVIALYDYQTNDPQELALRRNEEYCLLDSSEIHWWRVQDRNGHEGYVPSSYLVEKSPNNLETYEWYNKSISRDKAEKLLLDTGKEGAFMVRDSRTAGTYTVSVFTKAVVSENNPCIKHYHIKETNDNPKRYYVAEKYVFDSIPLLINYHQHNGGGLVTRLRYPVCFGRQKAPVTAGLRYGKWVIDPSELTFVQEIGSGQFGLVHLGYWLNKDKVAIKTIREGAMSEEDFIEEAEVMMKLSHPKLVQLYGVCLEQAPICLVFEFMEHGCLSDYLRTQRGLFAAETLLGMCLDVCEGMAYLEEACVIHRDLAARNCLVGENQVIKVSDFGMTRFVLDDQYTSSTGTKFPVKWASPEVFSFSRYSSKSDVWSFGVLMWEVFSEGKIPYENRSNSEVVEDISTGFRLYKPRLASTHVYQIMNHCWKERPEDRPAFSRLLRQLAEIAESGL
Method in brief: (§1)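 Using immobilised substrate copolymers (poly(Glu,Tyr) 4:1; poly(Arg,Ser) 3:1) and [33P]ATP, purified fusion kinases were allowed to react; plates were then rinsed in 0.5% phosphoric acid and counted in a scintillation detector. Half-maximal inhibition of label transfer defines IC50.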

IGFR-1 = target: T2, IGFR-1 (Homo sapiens, UniProt P08069); experiment: Kinase inhibition assay, IGFR-1 (Table 2); details: Table 2, kinase inhibition class
T2 construct: Kinases are expressed as either kinase domains or full length constructs; made in house
T2 sequence (P08069 31-1367): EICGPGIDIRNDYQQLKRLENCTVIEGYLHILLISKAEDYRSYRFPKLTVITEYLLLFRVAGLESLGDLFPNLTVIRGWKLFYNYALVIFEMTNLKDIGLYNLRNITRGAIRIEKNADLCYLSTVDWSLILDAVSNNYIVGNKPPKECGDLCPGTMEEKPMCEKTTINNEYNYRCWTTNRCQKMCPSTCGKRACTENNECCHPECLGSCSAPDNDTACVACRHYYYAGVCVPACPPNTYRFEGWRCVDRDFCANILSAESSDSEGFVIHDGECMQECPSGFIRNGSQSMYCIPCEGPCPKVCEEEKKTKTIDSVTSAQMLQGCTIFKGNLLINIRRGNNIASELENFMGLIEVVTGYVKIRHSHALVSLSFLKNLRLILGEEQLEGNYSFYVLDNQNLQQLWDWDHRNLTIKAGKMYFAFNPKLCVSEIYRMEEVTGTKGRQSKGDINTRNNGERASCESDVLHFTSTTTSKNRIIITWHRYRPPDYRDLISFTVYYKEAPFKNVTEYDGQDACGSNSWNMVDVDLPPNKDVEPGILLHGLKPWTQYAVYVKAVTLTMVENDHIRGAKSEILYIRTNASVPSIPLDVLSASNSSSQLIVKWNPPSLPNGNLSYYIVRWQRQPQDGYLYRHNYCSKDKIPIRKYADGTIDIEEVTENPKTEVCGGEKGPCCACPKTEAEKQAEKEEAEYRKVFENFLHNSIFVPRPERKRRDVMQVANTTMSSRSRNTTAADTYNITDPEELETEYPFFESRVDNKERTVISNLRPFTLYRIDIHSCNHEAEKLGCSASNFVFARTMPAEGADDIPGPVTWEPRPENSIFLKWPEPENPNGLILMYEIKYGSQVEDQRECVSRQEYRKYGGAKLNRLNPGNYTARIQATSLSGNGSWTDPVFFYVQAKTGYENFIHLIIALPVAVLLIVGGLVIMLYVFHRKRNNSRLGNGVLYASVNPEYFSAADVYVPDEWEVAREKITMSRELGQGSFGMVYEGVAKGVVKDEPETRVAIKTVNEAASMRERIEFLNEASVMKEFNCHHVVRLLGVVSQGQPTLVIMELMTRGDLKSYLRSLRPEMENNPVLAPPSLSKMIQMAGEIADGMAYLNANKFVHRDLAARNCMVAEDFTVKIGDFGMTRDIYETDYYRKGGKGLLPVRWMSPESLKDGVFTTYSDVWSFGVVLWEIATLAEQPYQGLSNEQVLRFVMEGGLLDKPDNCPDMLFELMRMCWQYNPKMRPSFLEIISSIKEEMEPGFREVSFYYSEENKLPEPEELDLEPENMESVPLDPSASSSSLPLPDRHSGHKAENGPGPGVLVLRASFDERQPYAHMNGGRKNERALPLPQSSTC

Lck = target: T3, Lck (Homo sapiens, UniProt P06239); experiment: Kinase inhibition assay (33P transfer), Lck; details: read-out: Lck-1
T3 construct: Kinases are expressed as either kinase domains or full length constructs; made in house
Method in brief: (§2)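 Recombinant kinase-domain or full-length fusion proteins (GST or His tag) served as enzyme. Substrate poly(Glu,Tyr) 4:1 or poly(Arg,Ser) 3:1 was bound to the plate; transferred 33P was read by liquid scintillation following acid washing.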

Kdr = target: T4, Kdr (Homo sapiens, UniProt P35968); experiment: Kinase inhibition assay (33P transfer), Kdr; details: read-out: KDR-1
T4 construct: Kinases are expressed as either kinase domains or full length constructs; made in house
T4 sequence (P35968 20-1356, species assumed): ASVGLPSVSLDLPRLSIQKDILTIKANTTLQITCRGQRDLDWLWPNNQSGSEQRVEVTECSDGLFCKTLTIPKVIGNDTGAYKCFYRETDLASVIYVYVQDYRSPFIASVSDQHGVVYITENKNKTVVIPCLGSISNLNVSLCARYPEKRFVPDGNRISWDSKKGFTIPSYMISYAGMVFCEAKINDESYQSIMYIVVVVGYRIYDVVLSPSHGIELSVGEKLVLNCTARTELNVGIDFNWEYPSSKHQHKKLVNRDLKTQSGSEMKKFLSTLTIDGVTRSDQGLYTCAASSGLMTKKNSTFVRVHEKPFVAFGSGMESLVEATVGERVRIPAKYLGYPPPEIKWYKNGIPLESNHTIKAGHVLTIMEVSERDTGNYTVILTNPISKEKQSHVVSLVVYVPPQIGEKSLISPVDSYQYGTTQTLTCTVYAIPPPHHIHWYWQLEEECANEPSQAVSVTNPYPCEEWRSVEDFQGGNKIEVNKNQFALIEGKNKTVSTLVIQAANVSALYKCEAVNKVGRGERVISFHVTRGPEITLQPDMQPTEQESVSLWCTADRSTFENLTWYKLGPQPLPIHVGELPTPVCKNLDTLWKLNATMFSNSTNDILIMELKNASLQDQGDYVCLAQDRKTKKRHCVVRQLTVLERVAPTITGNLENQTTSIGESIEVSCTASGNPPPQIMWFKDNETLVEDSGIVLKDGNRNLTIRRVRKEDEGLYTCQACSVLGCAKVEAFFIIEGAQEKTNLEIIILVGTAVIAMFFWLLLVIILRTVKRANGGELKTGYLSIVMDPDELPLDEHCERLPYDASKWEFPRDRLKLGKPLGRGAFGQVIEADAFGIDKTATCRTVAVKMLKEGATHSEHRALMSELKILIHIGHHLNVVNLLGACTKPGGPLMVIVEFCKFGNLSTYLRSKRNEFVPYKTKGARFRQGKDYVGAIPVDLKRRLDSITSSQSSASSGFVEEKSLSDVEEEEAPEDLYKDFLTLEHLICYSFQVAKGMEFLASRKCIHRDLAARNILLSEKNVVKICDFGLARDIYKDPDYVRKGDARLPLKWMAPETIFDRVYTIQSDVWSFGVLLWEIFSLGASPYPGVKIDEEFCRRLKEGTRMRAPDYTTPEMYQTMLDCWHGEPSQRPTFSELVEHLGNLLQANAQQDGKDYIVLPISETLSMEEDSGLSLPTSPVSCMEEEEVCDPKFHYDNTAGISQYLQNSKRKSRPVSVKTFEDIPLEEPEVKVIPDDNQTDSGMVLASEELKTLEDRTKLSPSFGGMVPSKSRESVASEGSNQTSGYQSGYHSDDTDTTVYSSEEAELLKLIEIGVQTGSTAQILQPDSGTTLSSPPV
Method in brief: as §2

c-Met = target: T5, c-Met (Homo sapiens, UniProt P08581); experiment: Kinase inhibition assay (33P transfer), c-Met; details: Table 2, kinase inhibition class; read-out: Met-1
T5 construct: Kinases are expressed as either kinase domains or full length constructs; made in house
T5 sequence (P08581 25-1390): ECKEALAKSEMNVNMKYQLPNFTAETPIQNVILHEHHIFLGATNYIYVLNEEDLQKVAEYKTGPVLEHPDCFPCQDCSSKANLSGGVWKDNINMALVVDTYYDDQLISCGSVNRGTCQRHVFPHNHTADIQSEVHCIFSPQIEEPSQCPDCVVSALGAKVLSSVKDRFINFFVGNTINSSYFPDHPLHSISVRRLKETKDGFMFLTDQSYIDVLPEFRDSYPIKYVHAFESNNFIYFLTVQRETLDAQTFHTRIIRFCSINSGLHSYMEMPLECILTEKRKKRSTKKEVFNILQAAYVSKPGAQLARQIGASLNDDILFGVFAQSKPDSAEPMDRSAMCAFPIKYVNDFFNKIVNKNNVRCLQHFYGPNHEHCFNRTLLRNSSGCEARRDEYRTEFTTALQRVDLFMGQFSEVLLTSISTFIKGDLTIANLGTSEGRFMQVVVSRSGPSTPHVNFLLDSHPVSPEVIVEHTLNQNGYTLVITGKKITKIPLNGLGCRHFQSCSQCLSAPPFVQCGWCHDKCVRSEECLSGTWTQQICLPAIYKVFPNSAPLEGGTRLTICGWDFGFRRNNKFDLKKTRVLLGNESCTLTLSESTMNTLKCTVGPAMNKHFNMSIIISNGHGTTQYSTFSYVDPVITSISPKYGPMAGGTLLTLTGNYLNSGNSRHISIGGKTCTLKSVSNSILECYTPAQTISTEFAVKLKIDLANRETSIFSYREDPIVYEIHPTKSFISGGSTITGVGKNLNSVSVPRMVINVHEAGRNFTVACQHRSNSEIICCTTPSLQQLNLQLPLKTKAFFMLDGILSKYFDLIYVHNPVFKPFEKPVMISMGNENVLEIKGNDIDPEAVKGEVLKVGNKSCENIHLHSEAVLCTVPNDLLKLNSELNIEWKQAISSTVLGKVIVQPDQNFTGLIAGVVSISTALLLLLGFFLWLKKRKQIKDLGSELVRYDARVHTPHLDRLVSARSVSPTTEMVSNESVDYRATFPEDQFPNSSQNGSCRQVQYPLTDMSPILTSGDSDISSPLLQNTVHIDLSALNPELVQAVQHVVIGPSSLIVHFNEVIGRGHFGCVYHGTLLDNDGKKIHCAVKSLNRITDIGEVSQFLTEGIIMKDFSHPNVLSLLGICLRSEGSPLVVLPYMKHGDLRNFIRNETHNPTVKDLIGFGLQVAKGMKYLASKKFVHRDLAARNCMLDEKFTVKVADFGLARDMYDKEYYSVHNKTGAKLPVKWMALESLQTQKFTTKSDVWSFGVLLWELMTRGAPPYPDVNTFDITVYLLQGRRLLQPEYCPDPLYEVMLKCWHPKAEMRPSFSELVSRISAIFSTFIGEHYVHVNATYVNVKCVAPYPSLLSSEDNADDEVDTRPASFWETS
Method in brief: as §1

Zap-70 = target: T6, Zap-70 (Homo sapiens, UniProt P43403); experiment: Kinase inhibition assay (33P transfer), Zap-70; details: read-out: Zap-1
T6 construct: Kinases are expressed as either kinase domains or full length constructs; made in house
T6 sequence (P43403 1-619): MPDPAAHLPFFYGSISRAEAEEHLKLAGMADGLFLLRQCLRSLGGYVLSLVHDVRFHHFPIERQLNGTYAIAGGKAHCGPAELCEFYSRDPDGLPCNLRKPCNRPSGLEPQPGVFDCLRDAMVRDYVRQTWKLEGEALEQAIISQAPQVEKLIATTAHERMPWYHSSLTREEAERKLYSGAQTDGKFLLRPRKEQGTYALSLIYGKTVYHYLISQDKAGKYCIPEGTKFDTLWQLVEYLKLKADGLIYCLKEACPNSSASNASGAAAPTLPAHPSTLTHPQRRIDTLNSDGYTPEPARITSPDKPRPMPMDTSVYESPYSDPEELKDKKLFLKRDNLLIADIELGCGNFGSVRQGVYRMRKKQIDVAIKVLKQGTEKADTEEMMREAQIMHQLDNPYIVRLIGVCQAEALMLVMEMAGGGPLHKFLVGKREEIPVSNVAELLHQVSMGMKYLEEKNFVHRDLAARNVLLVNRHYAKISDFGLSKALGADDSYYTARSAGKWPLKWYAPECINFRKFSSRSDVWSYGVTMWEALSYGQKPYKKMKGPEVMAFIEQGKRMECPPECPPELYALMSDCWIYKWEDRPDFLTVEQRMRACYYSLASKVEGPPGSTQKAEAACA
Method in brief: as §2

ErbB2 = target: T7, ErbB2 (Homo sapiens, UniProt P04626); experiment: Kinase inhibition assay (33P transfer), ErbB2; details: read-out: ErbB2-2
T7 construct: Kinases are expressed as either kinase domains or full length constructs; made in house
Method in brief: as §1

PDGFRB = target: T8, PDGFRB (Homo sapiens, UniProt P09619); experiment: Kinase inhibition assay (33P transfer), PDGFRB; details: read-out: PDGFRB-1
T8 construct: Kinases are expressed as either kinase domains or full length constructs; made in house
T8 sequence (P09619 33-1106, species assumed): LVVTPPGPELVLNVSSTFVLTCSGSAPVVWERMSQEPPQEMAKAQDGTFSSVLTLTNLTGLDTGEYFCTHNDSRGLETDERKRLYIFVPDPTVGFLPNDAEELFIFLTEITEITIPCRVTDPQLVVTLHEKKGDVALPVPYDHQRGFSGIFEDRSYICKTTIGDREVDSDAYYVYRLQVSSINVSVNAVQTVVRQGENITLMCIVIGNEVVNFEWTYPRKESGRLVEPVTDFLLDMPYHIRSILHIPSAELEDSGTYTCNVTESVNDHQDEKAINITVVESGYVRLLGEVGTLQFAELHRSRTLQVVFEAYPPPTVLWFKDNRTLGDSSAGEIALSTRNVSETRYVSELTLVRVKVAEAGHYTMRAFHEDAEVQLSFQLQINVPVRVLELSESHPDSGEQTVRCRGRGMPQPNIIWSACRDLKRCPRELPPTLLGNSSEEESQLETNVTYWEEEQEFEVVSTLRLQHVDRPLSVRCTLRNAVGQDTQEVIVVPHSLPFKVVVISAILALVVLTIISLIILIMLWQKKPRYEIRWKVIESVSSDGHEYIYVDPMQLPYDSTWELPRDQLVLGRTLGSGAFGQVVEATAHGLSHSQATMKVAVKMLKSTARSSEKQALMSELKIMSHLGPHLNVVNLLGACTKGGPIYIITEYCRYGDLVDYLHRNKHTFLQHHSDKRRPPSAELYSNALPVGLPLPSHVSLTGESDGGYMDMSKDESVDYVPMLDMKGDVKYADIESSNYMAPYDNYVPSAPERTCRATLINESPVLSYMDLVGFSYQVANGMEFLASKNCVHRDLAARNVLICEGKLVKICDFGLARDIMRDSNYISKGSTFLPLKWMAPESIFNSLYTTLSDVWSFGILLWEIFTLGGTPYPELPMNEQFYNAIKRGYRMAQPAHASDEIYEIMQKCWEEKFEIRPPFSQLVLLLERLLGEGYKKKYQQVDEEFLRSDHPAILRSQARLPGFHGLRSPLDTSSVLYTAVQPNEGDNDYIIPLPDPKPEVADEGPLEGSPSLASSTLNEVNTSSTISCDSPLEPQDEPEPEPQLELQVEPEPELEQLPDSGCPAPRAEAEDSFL

EGFR = target: T9, EGFR (Homo sapiens, UniProt P00533); experiment: Kinase inhibition assay (33P transfer), EGFR; details: Table 2, kinase inhibition class; read-out: EGFR-1
T9 construct: Kinases are expressed as either kinase domains or full length constructs; made in house
Method in brief: as §1

AKT = target: T10, AKT (Homo sapiens, UniProt Q9Y243); experiment: Kinase inhibition assay (33P transfer), AKT; details: Table 2, kinase inhibition class; read-out: AKT3-1
T10 construct: Kinases are expressed as either kinase domains or full length constructs; made in house
Method in brief: as §2

Structure (SMILES) | IC50 (Itk) | IC50 (IGFR-1) | IC50 (Lck) | IC50 (Kdr) | IC50 (c-Met) | IC50 (Zap-70) | IC50 (ErbB2) | IC50 (PDGFRB) | IC50 (EGFR) | IC50 (AKT)
CC(=O)Nc1ccc(Nc2ncnc(N3CCCc4cc(C)ccc43)n2)cc1 [Compound 760] | > 12 µM | > 12 µM | 1.07 to 6.41 µM | 1.07 to 6.41 µM | 1.07 to 6.41 µM | > 12 µM | 1.07 to 6.41 µM | 1.07 to 6.41 µM | < 1.07 µM | > 12 µM
CN(c1cccc(Cl)c1)c1ncnc(Nc2ncccn2)n1 [Compound 757] | > 14.3 µM | > 14.3 µM | > 14.3 µM | > 14.3 µM | > 14.3 µM | > 14.3 µM | > 14.3 µM | > 14.3 µM | < 1.27 µM | > 14.3 µM
CN(c1ccc(F)c(Cl)c1)c1ncnc(Nc2cccc(Br)c2)n1 [Compound 713] | > 11 µM | > 11 µM | > 11 µM | 0.979 to 5.87 µM | > 11 µM | > 11 µM | > 11 µM | > 11 µM | > 11 µM | > 11 µM
CCc1ccc(Nc2nc3ccccc3n2-c2ncnc(Nc3cc(OC)c(OC)c(OC)c3)n2)cc1 [Compound 1048] | > 9.04 µM | > 9.04 µM | 0.804 to 4.82 µM | < 0.804 µM | > 9.04 µM | > 9.04 µM | 0.804 to 4.82 µM | 7.03 to 9.04 µM | < 0.804 µM | > 9.04 µM
COc1ccc2c(c1)CCCN2c1ncnc(Nc2cc(OC)c(OC)c(OC)c2)n1 [Compound 631] | > 10.6 µM | 0.945 to 5.67 µM | < 0.945 µM | < 0.945 µM | < 0.945 µM | > 10.6 µM | 0.945 to 5.67 µM | < 0.945 µM | 0.945 to 5.67 µM | > 10.6 µM
CN(c1cccc(Cl)c1)c1ncnc(NCCN2CCCCC2)n1 [Compound 740] | > 13 µM | > 13 µM | > 13 µM | > 13 µM | > 13 µM | > 13 µM | > 13 µM | > 13 µM | 6.92 to 10.1 µM | > 13 µM
COc1ccc(Nc2ncnc(N(C)c3cccc(Cl)c3)n2)cc1 [Compound 743] | > 13.2 µM | > 13.2 µM | > 13.2 µM | > 13.2 µM | > 13.2 µM | > 13.2 µM | > 13.2 µM | > 13.2 µM | < 1.17 µM | > 13.2 µM
COc1cc(Nc2ncnc(-n3c(Nc4cccc5cccnc45)nc4ccccc43)n2)cc(OC)c1OC [Compound 588] | > 8.64 µM | 6.72 to 8.64 µM | > 8.64 µM | 4.61 to 6.72 µM | > 8.64 µM | > 8.64 µM | 0.768 to 4.61 µM | 0.768 to 4.61 µM | > 8.64 µM | > 8.64 µM
Brc1cccc(Nc2ncnc(Nc3cccc(Br)c3)n2)c1 [Compound 539] | 8.31 to 10.7 µM | 5.7 to 8.31 µM | 8.31 to 10.7 µM | 0.95 to 5.7 µM | 8.31 to 10.7 µM | 0.95 to 5.7 µM | 0.95 to 5.7 µM | 8.31 to 10.7 µM | < 0.95 µM | 8.31 to 10.7 µM
Cc1ccc2c(c1)CCCN2c1ncnc(NCc2cccnc2)n1 [Compound 777] | 10.5 to 13.5 µM | > 13.5 µM | > 13.5 µM | > 13.5 µM | > 13.5 µM | > 13.5 µM | > 13.5 µM | > 13.5 µM | > 13.5 µM | > 13.5 µM
c1ccc(CNc2nc3ccccc3n2-c2ncnc(Nc3cccc(Cc4nnn[nH]4)c3)n2)cc1 [Compound 957] | 0.841 to 5.05 µM | 0.841 to 5.05 µM | 0.841 to 5.05 µM | < 0.841 µM | 0.841 to 5.05 µM | 5.05 to 7.36 µM | < 0.841 µM | < 0.841 µM | < 0.841 µM | 0.841 to 5.05 µM
CN(C)CCNc1ncnc(Nc2ccc3c(cnn3Cc3ccccc3)c2)n1 [Compound 733] | > 11.6 µM | > 11.6 µM | > 11.6 µM | > 11.6 µM | > 11.6 µM | > 11.6 µM | > 11.6 µM | > 11.6 µM | 1.03 to 6.18 µM | > 11.6 µM
CN1CCN(Cc2cccc(Nc3ncnc(Nc4cccc5ccccc45)n3)c2)CC1 [Compound 551] | > 10.6 µM | > 10.6 µM | > 10.6 µM | > 10.6 µM | 8.22 to 10.6 µM | > 10.6 µM | > 10.6 µM | > 10.6 µM | > 10.6 µM | > 10.6 µM
Clc1cccc(Nc2ncnc(Nc3cc(-c4ccccc4)n[nH]3)n2)c1 [Compound 1009] | 1.1 to 6.6 µM | < 1.1 µM | > 12.4 µM | > 12.4 µM | > 12.4 µM | > 12.4 µM | > 12.4 µM | 9.62 to 12.4 µM | < 1.1 µM | > 12.4 µM
COc1ccc(CNc2nc3ccccc3n2-c2ncnc(Nc3cccc(CC(=O)O)c3)n2)cc1 [Compound 534] | > 9.35 µM | > 9.35 µM | 7.27 to 9.35 µM | < 0.831 µM | > 9.35 µM | > 9.35 µM | > 9.35 µM | 0.831 to 4.98 µM | > 9.35 µM | > 9.35 µM
COC(=O)Cc1cccc(Nc2ncnc(-n3c(NCc4ccc(OC)cc4)nc4ccccc43)n2)c1 [Compound 548] | > 9.08 µM | > 9.08 µM | > 9.08 µM | < 0.807 µM | > 9.08 µM | > 9.08 µM | > 9.08 µM | > 9.08 µM | > 9.08 µM | > 9.08 µM
Cc1ccc2c(c1)CCCN2c1ncnc(NCCc2c[nH]c3ccccc23)n1 [Compound 768] | > 11.7 µM | > 11.7 µM | > 11.7 µM | 9.1 to 11.7 µM | 6.24 to 9.1 µM | > 11.7 µM | 9.1 to 11.7 µM | > 11.7 µM | > 11.7 µM | > 11.7 µM
COc1ccc([C@@H](C)Nc2nc3ccccc3n2-c2ncnc(Nc3cc(OC)c(OC)c(OC)c3)n2)cc1 [Compound 1045] | > 8.53 µM | > 8.53 µM | 0.758 to 4.55 µM | 0.758 to 4.55 µM | > 8.53 µM | > 8.53 µM | > 8.53 µM | 0.758 to 4.55 µM | > 8.53 µM | > 8.53 µM
c1ccc(Cn2ncc3cc(Nc4ncnc(NCC5CCCCC5)n4)ccc32)cc1 [Compound 727] | > 10.9 µM | > 10.9 µM | > 10.9 µM | 8.46 to 10.9 µM | 8.46 to 10.9 µM | 5.8 to 8.46 µM | > 10.9 µM | > 10.9 µM | > 10.9 µM | > 10.9 µM
COc1cc(Nc2ncnc(Nc3ccc4nn(Cc5ccccc5)cc4c3)n2)cc(OC)c1OC [Compound 555] | 7.24 to 9.31 µM | < 0.827 µM | < 0.827 µM | 0.827 to 4.96 µM | 4.96 to 7.24 µM | 7.24 to 9.31 µM | 0.827 to 4.96 µM | 0.827 to 4.96 µM | < 0.827 µM | 4.96 to 7.24 µM

— patent US7074789B2, “Kinase inhibitors” (Amgen Inc., priority 1999, dated 2006)
